{"source": "the NIST ThermoML archive (doi:10.1016/j.fluid.2018.05.018)", "details": "Crystal; visual observation", "note": "Numbers after ± are expanded uncertainties."}
{"smiles": "CCOC(=O)N1CCC(=C2c3ccc(Cl)cc3CCc3cccnc32)CC1", "note": "[claritine]", "values": [{"measurement": "Normal melting temperature", "value": "134 ± 4", "unit": "°C"}]}
